# Test results published in patent US20220047548A1, “SYNERGISTIC COMPOSITIONS COMPRISING (R)-2-(2-OXOPYRROLIDIN-1-YL)BUTANAMIDE AND (S)-2-(2-e OXOPYRROLEDIN-1-YL)BUTANAMEDE IN A NON-RACEMIC RATIO” (Metys Pharmaceuticals AG, priority 2018, published 2022).
# Marks after values point to notes of the source that are not given here.
# Columns and labels:
# [1] = system: PTZ-induced kindling in mice; experiment: PTZ-induced kindling test in mice (tonic and clonic convulsions kindled by once-daily pentylenetetrazole); format: in vivo, mice (adult male CD1); conditions: for antiepileptic effect in comparison experiment (in words): Tab. 2 comparison
# Description: Adult male CD1 mice (Envigo, Italy 20-25 g weight at arrival), were used. The cages were brought into the experimental room the day before the experiment, for acclimatization purposes. Each treatment group consisted of 15 mice. Mice were fed a standard laboratory diet. Food and water were freely available. Room temperature and relative humidity were constantly kept at 22±2° C. and 55±15%, respectively, and a 12-hour light and 12-hour darkness cycles maintained.
# Levetiracetam (batch P102-14050 supplied by Astatech), etiracetam (supplied by Shaanxi Swiden Biotech Co., Ltd. Catalog number E932970), or mixtures of 1 part levetiracetam and 1 part etiracetam (1-to-3 R-to-S-etiracetam), or of 1 part levetiracetam and 0.5 part etiracetam (1-to-5 R-to-S-etiracetam), were dissolved in 1% carboxymethylcellulose (CMC) solution at a formulation strength of 55 mg/mL and orally administered once per day. Compounds were administered every day, from day 1 to day 11, 60 min before PTZ (55 mg/kg i.p.). PTZ was dissolved in saline; following i.p. injection, seizures developed in vehicle-treated mice within about 20 minutes.
# The test was performed according to Gower et al. (Eur. J. Pharmacol. 222, 1992, 193-203). Separate groups of male mice were administered orally once daily for 11 consecutive days with levetiracetam (10, 30, or 60 mg/kg p.o.); etiracetam (30 mg/kg p.o.); or 1-to-3 R-to-S-etiracetam (30 mg/kg p.o.); or 1-to-5 R-to-S-etiracetam, (30 mg/kg p.o.); or oral vehicle, 60 min prior to administration of PTZ (pentylenetetrazole, 55.0 mg/kg i.p.). Immediately after the PTZ injection, the mice were placed in individual cages and observed for tonic and clonic seizures.
# A chi-square test was used to verify significance between two means of behavioral results. Data were analyzed by the Social Science Statistics Program. P values ≤0.05 were considered significant (link https://www.socscistatistics.com/tests/chisquare/default2.aspx).
# [2] = system: electroshock-induced amnesia; conditions: sub-cutaneous injection; rat; cited from earlier work
# [3] = Table 2 comparison, 30 mg/kg p.o. once daily 60 min before PTZ 55 mg/kg i.p., Day 1
# [4] = Table 2 comparison, 30 mg/kg p.o. once daily 60 min before PTZ 55 mg/kg i.p., Day 2
# [5] = Table 2 comparison, 30 mg/kg p.o. once daily 60 min before PTZ 55 mg/kg i.p., Day 3
# [6] = Table 2 comparison, 30 mg/kg p.o. once daily 60 min before PTZ 55 mg/kg i.p., Day 4
# [7] = Table 2 comparison, 30 mg/kg p.o. once daily 60 min before PTZ 55 mg/kg i.p., Day 5
# [8] = Table 2 comparison, 30 mg/kg p.o. once daily 60 min before PTZ 55 mg/kg i.p., Day 6
# [9] = Table 2 comparison, 30 mg/kg p.o. once daily 60 min before PTZ 55 mg/kg i.p., Day 7
# [10] = Table 2 comparison, 30 mg/kg p.o. once daily 60 min before PTZ 55 mg/kg i.p., Day 8
# [11] = Table 2 comparison, 30 mg/kg p.o. once daily 60 min before PTZ 55 mg/kg i.p., Day 9
# [12] = Table 2 comparison, 30 mg/kg p.o. once daily 60 min before PTZ 55 mg/kg i.p., Day 10
# [13] = Table 2 comparison, 30 mg/kg p.o. once daily 60 min before PTZ 55 mg/kg i.p., Day 11
structure (smiles),measurement,setting,value
"CC[C@@H](C(N)=O)N1CCCC1=O [levetiracetam, (S)-2-(2-oxopyrrolidin-1-yl)butanamide]",effect on PTZ-induced kindling (in words),"[1]; 10 mg/kg p.o., at the end of the treatment (day 11)",all mice showed tonic or clonic convulsions
same,antiepileptic effect in comparison experiment (in words),[1]; 30 mg/kg p.o.,moderately effective
same,effect on PTZ-induced kindling (in words),"[1]; 30 mg/kg p.o., dose-response experiment (Tab. 1)",intermediate reduction of the effect
same,incidence of clonic convulsion in the first 6 days,"[1]; 60 mg/kg p.o. once daily, days 1-6",≤ 20%
same,effect on PTZ-induced kindling vs vehicle treatment group (in words),"[1]; 60 mg/kg p.o., eighth to eleventh day of treatment",statistically significant difference in the proportion of mice exhibiting seizures
same,percentage of mice per group with clonic convulsions,"[1]; Table 1, 10 mg/kg p.o. once daily 60 min before PTZ 55 mg/kg i.p., Day 1",6.6%
same,percentage of mice per group with clonic convulsions,"[1]; Table 1, 10 mg/kg p.o. once daily 60 min before PTZ 55 mg/kg i.p., Day 2",6.6%
same,percentage of mice per group with clonic convulsions,"[1]; Table 1, 10 mg/kg p.o. once daily 60 min before PTZ 55 mg/kg i.p., Day 3",20.0%
same,percentage of mice per group with clonic convulsions,"[1]; Table 1, 10 mg/kg p.o. once daily 60 min before PTZ 55 mg/kg i.p., Day 4",26.6%
same,percentage of mice per group with clonic convulsions,"[1]; Table 1, 10 mg/kg p.o. once daily 60 min before PTZ 55 mg/kg i.p., Day 5",26.6%
same,percentage of mice per group with clonic convulsions,"[1]; Table 1, 10 mg/kg p.o. once daily 60 min before PTZ 55 mg/kg i.p., Day 6",53.0%
same,percentage of mice per group with clonic convulsions,"[1]; Table 1, 10 mg/kg p.o. once daily 60 min before PTZ 55 mg/kg i.p., Day 7",53.3%
same,percentage of mice per group with clonic convulsions,"[1]; Table 1, 10 mg/kg p.o. once daily 60 min before PTZ 55 mg/kg i.p., Day 8",73.3%
same,percentage of mice per group with clonic convulsions,"[1]; Table 1, 10 mg/kg p.o. once daily 60 min before PTZ 55 mg/kg i.p., Day 9",86.6%
same,percentage of mice per group with clonic convulsions,"[1]; Table 1, 10 mg/kg p.o. once daily 60 min before PTZ 55 mg/kg i.p., Day 10",86.6%
same,percentage of mice per group with clonic convulsions,"[1]; Table 1, 10 mg/kg p.o. once daily 60 min before PTZ 55 mg/kg i.p., Day 11",100%
same,percentage of mice per group with clonic convulsions,"[1]; Table 1, 30 mg/kg p.o. once daily 60 min before PTZ 55 mg/kg i.p., Day 1",0%
same,percentage of mice per group with clonic convulsions,"[1]; Table 1, 30 mg/kg p.o. once daily 60 min before PTZ 55 mg/kg i.p., Day 2",6.6%
same,percentage of mice per group with clonic convulsions,"[1]; Table 1, 30 mg/kg p.o. once daily 60 min before PTZ 55 mg/kg i.p., Day 3",13.3%
same,percentage of mice per group with clonic convulsions,"[1]; Table 1, 30 mg/kg p.o. once daily 60 min before PTZ 55 mg/kg i.p., Day 4",20.0%
same,percentage of mice per group with clonic convulsions,"[1]; Table 1, 30 mg/kg p.o. once daily 60 min before PTZ 55 mg/kg i.p., Day 5",20.0%
same,percentage of mice per group with clonic convulsions,"[1]; Table 1, 30 mg/kg p.o. once daily 60 min before PTZ 55 mg/kg i.p., Day 6",26.6%
same,percentage of mice per group with clonic convulsions,"[1]; Table 1, 30 mg/kg p.o. once daily 60 min before PTZ 55 mg/kg i.p., Day 7",33.3%
same,percentage of mice per group with clonic convulsions,"[1]; Table 1, 30 mg/kg p.o. once daily 60 min before PTZ 55 mg/kg i.p., Day 8",46.6%
same,percentage of mice per group with clonic convulsions,"[1]; Table 1, 30 mg/kg p.o. once daily 60 min before PTZ 55 mg/kg i.p., Day 9",66.6%
same,percentage of mice per group with clonic convulsions,"[1]; Table 1, 30 mg/kg p.o. once daily 60 min before PTZ 55 mg/kg i.p., Day 10",66.6%
same,percentage of mice per group with clonic convulsions,"[1]; Table 1, 30 mg/kg p.o. once daily 60 min before PTZ 55 mg/kg i.p., Day 11",73.3%
same,percentage of mice per group with clonic convulsions,"[1]; Table 1, 60 mg/kg p.o. once daily 60 min before PTZ 55 mg/kg i.p., Day 1",0%
same,percentage of mice per group with clonic convulsions,"[1]; Table 1, 60 mg/kg p.o. once daily 60 min before PTZ 55 mg/kg i.p., Day 2",0%
same,percentage of mice per group with clonic convulsions,"[1]; Table 1, 60 mg/kg p.o. once daily 60 min before PTZ 55 mg/kg i.p., Day 3",6.6%
same,percentage of mice per group with clonic convulsions,"[1]; Table 1, 60 mg/kg p.o. once daily 60 min before PTZ 55 mg/kg i.p., Day 4",20.0%
same,percentage of mice per group with clonic convulsions,"[1]; Table 1, 60 mg/kg p.o. once daily 60 min before PTZ 55 mg/kg i.p., Day 5",20.0%
same,percentage of mice per group with clonic convulsions,"[1]; Table 1, 60 mg/kg p.o. once daily 60 min before PTZ 55 mg/kg i.p., Day 6",20.0%
same,percentage of mice per group with clonic convulsions,"[1]; Table 1, 60 mg/kg p.o. once daily 60 min before PTZ 55 mg/kg i.p., Day 7",26.6%
same,percentage of mice per group with clonic convulsions,"[1]; Table 1, 60 mg/kg p.o. once daily 60 min before PTZ 55 mg/kg i.p., Day 8",26.6^# %
same,percentage of mice per group with clonic convulsions,"[1]; Table 1, 60 mg/kg p.o. once daily 60 min before PTZ 55 mg/kg i.p., Day 9",33.3^# %
same,percentage of mice per group with clonic convulsions,"[1]; Table 1, 60 mg/kg p.o. once daily 60 min before PTZ 55 mg/kg i.p., Day 10",33.3^# %
same,percentage of mice per group with clonic convulsions,"[1]; Table 1, 60 mg/kg p.o. once daily 60 min before PTZ 55 mg/kg i.p., Day 11",40%
same,percentage of mice per group with clonic convulsions,[1]; [3],0%
same,percentage of mice per group with clonic convulsions,[1]; [4],0%
same,percentage of mice per group with clonic convulsions,[1]; [5],6.6%
same,percentage of mice per group with clonic convulsions,[1]; [6],13.3%
same,percentage of mice per group with clonic convulsions,[1]; [7],20.0%
same,percentage of mice per group with clonic convulsions,[1]; [8],26.6%
same,percentage of mice per group with clonic convulsions,[1]; [9],33.3%
same,percentage of mice per group with clonic convulsions,[1]; [10],46.6%
same,percentage of mice per group with clonic convulsions,[1]; [11],66.6%
same,percentage of mice per group with clonic convulsions,[1]; [12],73.3%
same,percentage of mice per group with clonic convulsions,[1]; [13],73.3%
"CC[C@H](C(N)=O)N1CCCC1=O [R-etiracetam, (R)-2-(2-oxopyrrolidin-1-yl)butanamide]",potency relative to racemic etiracetam,[2],10 fold
"CCC(C(N)=O)N1CCCC1=O (racemic) [etiracetam, 2-(2-oxopyrrolidin-1-yl)butanamide]",antiepileptic effect in comparison experiment (in words),[1]; 30 mg/kg p.o.,ineffective
same,percentage of mice per group with clonic convulsions,[1]; [3],0%
same,percentage of mice per group with clonic convulsions,[1]; [4],6.6%
same,percentage of mice per group with clonic convulsions,[1]; [5],13.3%
same,percentage of mice per group with clonic convulsions,[1]; [6],26.6%
same,percentage of mice per group with clonic convulsions,[1]; [7],26.6%
same,percentage of mice per group with clonic convulsions,[1]; [8],46.6%
same,percentage of mice per group with clonic convulsions,[1]; [9],53.3%
same,percentage of mice per group with clonic convulsions,[1]; [10],66.6%
same,percentage of mice per group with clonic convulsions,[1]; [11],86.6%
same,percentage of mice per group with clonic convulsions,[1]; [12],93.3%
same,percentage of mice per group with clonic convulsions,[1]; [13],100%
